Laboratory results taken from ChEMBL document CHEMBL2169825, “Development of selective, potent RabGGTase inhibitors” (J Med Chem, 2012).

Tests used:
[1] = Inhibition of GGTase 1 using NBD-FPP as substrate after 10 mins by solution based fluorometric assay
[2] = Inhibition of FTase using NBD-GPP as substrate after 10 mins by solution based fluorometric assay
[3] = Inhibition of RabGGTase using [3H]GGPP as substrate after 1 hr by scintillation proximity assay
HCT-116 = experiment: Cytotoxicity against human HCT116 cells after 24 hrs by Alamar Blue assay; format: functional, cell-based; conditions: HCT-116, 24 h
HeLa = experiment: Cytotoxicity against human HeLa cells after 24 hrs by Alamar Blue assay; format: functional, cell-based
A2780 = experiment: Cytotoxicity against human A2780 cells after 24 hrs by Alamar Blue assay; format: functional, cell-based; conditions: A2780, 24 h
A549 = experiment: Cytotoxicity against human A549 cells after 24 hrs by Alamar Blue assay; format: functional, cell-based; conditions: A549, 24 h
DU-145 = experiment: Cytotoxicity against human DU145 cells after 24 hrs by Alamar Blue assay; format: functional, cell-based; conditions: DU-145, 24 h
PBMC = experiment: Cytotoxicity against human PBMC cells after 24 hrs by Alamar Blue assay; format: cell-based
[4] = Inhibition of RabGGTase using NBD-FPP as substrate after 5 mins by fluorometric assay
[5] = Inhibition of RabGGTase in human HeLa cells after 6 hrs by reprenylation assay; format: cell-based
[6] = Inhibition of rat RabGGTase using [3H]GGPP as substrate after 30 mins by scintillation counter

Compound | IC50 [1] | IC50 [2] | IC50 [3] | IC50 (HCT-116) | IC50 (HeLa) | IC50 (A2780) | IC50 (A549) | IC50 (DU-145) | IC50 (PBMC) | IC50 [4] | IC50 [5] | IC50 [6]
COc1ccc(S(=O)(=O)N2Cc3cc(C(=O)NCc4ccccc4)ccc3N(Cc3cncn3C)C[C@H]2Cc2ccc(O)cc2)cc1 | > 99500 nM | 7 nM | 19 nM |  |  |  |  |  |  |  |  | 
COc1ccc(S(=O)(=O)N2Cc3cc(C#N)ccc3N(Cc3cncn3C)C[C@H]2Cc2ccc(OCc3ccccc3)cc2)cc1 | > 99500 nM | 99.3 nM | 181 nM | 1050 nM | 372 nM | 265 nM | 746 nM | 756 nM | > 10000 nM | 441 nM |  | 
COc1ccc(S(=O)(=O)N2Cc3cc(-c4ccnc(OC)c4)ccc3N(Cc3cncn3C)C[C@H]2Cc2ccc(OCc3ccccc3)cc2)cc1 | > 99500 nM | 2560 nM | 5240 nM |  |  |  |  |  |  |  |  | 
COc1ccc(S(=O)(=O)N2Cc3cc(-c4ccc(C=O)o4)ccc3N(Cc3cncn3C)C[C@H]2Cc2ccc(OC(=O)NCc3ccccc3)cc2)cc1 | > 99500 nM | > 9700 nM | 1550 nM | 443 nM | 797 nM | 589 nM |  |  | > 10000 nM | 616 nM | 311 nM | 
COc1ccc(S(=O)(=O)N2Cc3cc(-c4ccc(C#N)o4)ccc3N(Cc3cncn3C)C[C@H]2Cc2ccc(-c3cccnc3)cc2)cc1 | > 99500 nM | 110 nM | 37 nM |  |  |  |  |  |  |  |  | 
COc1ccc(S(=O)(=O)N2Cc3cc(-c4ccnc(OC)c4)ccc3N(Cc3cncn3C)C[C@H]2Cc2ccc(OC(=O)NCc3ccccc3)cc2)cc1 | > 99500 nM | 321 nM | 55 nM |  |  |  |  |  |  |  | 338 nM | 
COc1ccc(S(=O)(=O)N2Cc3cc(-c4ccc(C#N)o4)ccc3N(Cc3cncn3C)C[C@H]2Cc2ccc(Nc3ccccc3)cc2)cc1 | > 99500 nM | 1210 nM | 1060 nM |  |  |  |  |  |  |  |  | 
CCN(CC)C(=O)Oc1ccc(C[C@@H]2CN(Cc3cncn3C)c3ccc(C#N)cc3CN2S(=O)(=O)c2ccc(OC)cc2)cc1 | 2020 nM |  | 123 nM | 75 nM | 745 nM | 43 nM | 412 nM |  | > 10000 nM |  | 343 nM | 
COc1ccc(S(=O)(=O)N2Cc3cc(C#N)ccc3N(Cc3cncn3C)C[C@H]2Cc2ccc(OS(=O)(=O)C(F)(F)F)cc2)cc1 | > 99500 nM |  | 1500 nM |  | 1960 nM | 92 nM | 2220 nM | 3100 nM | > 10000 nM | 18600 nM | > 10000 nM | 
COc1ccc(S(=O)(=O)N2Cc3cc(-c4ccnc(OC)c4)ccc3N(Cc3cncn3C)C[C@H]2Cc2ccc(-c3cccnc3)cc2)cc1 | > 99500 nM | 79 nM | 121 nM |  |  |  |  |  |  |  | 300 nM | 
COc1ccc(S(=O)(=O)N2Cc3cc(-c4cc(F)cc(F)c4)ccc3N(Cc3cncn3C)C[C@H]2Cc2ccc(O)cc2)cc1 | > 99500 nM | 172 nM | 185 nM |  |  |  |  |  |  |  |  | 
COc1ccc(S(=O)(=O)N2Cc3cc(-c4ccc(C=O)o4)ccc3N(Cc3cncn3C)C[C@H]2Cc2ccc(-c3ccc(Cl)cc3)cc2)cc1 | > 99500 nM | > 9700 nM | 2240 nM |  |  |  |  |  |  |  |  | 
COc1ccc(S(=O)(=O)N2Cc3cc(-c4ccc(C#N)o4)ccc3N(Cc3cncn3C)C[C@H]2Cc2ccc(OCc3ccccc3)cc2)cc1 | > 99500 nM | > 9700 nM | 577 nM |  |  |  |  |  |  |  | 213 nM | 
COc1ccc(S(=O)(=O)N2Cc3cc(-c4ccc(C#N)o4)ccc3N(Cc3cncn3C)C[C@H]2Cc2ccc(O)cc2)cc1 | > 99500 nM | 26.9 nM | < 14 nM | 2 nM | 21 nM | 18 nM |  |  | > 10000 nM | 62.5 nM | 11 nM | 
COc1ccc(S(=O)(=O)N2Cc3cc(-c4ccc(C=O)o4)ccc3N(Cc3cncn3C)C[C@H]2Cc2ccc(OS(=O)(=O)C(F)(F)F)cc2)cc1 | > 99500 nM | > 9700 nM | 4290 nM |  |  |  |  |  |  |  |  | 
COc1ccc(S(=O)(=O)N2Cc3cc(C#N)ccc3N(Cc3cncn3C)C[C@H]2Cc2ccc(O)cc2)cc1 | > 99500 nM | 5.2 nM | < 4 nM | 172 nM | 130 nM | 100 nM | 315 nM | 162 nM |  | 1010 nM | 115 nM | 
COc1ccc(S(=O)(=O)N2Cc3cc(C#N)ccc3N(Cc3cncn3C)C[C@H]2Cc2ccc(OCC=C(C)C)cc2)cc1 | > 99500 nM | 15 nM | 63 nM | 112 nM | 59 nM | 116 nM | 74 nM | 90 nM | 8030 nM | 39 nM | 43 nM | 
COc1ccc(S(=O)(=O)N2Cc3cc(-c4ccncc4)ccc3N(Cc3cncn3C)C[C@H]2Cc2ccc(O)cc2)cc1 | > 99500 nM | 13.6 nM | < 4 nM |  |  |  |  |  |  |  |  | 

Compound | IC50 [1] | IC50 [2] | IC50 [3] | IC50 (HCT-116) | IC50 (HeLa) | IC50 (A2780) | IC50 (A549) | IC50 (DU-145) | IC50 (PBMC) | IC50 [4] | IC50 [5] | IC50 [6]
CCCCOc1ccc(C[C@@H]2CN(Cc3cncn3C)c3ccc(C#N)cc3CN2S(=O)(=O)c2ccc(OC)cc2)cc1 | > 99500 nM | 10 nM | 156 nM | 264 nM | 154 nM | 165 nM | 216 nM | 241 nM | 8690 nM | 162 nM | 307 nM | 
COc1ccc(S(=O)(=O)N2Cc3cc(C#N)ccc3N(Cc3cncn3C)C[C@H]2Cc2ccc(OC/C=C(\C)CCC=C(C)C)cc2)cc1 | > 99500 nM | 1010 nM | 23.5 nM | 1430 nM |  | 1380 nM | 653 nM |  | > 10000 nM | 2070 nM | 278 nM | 
CCCCCCNC(=O)Oc1ccc(C[C@@H]2CN(Cc3cncn3C)c3ccc(C#N)cc3CN2S(=O)(=O)c2ccc(OC)cc2)cc1 | > 99500 nM |  | 15.5 nM | 355 nM |  | 233 nM | 289 nM | 228 nM |  | 243 nM | 77.3 nM | 
COc1ccc(S(=O)(=O)N2Cc3cc(-c4ccc(C=O)o4)ccc3N(Cc3cncn3C)C[C@H]2Cc2ccc(O)cc2)cc1 | > 99500 nM | 7 nM |  |  |  |  |  |  |  | 206 nM | 120 nM | 
COc1ccc(S(=O)(=O)N2Cc3cc(C#N)ccc3N(Cc3cncn3C)C[C@H]2Cc2ccc(OC(=O)NCc3ccccc3)cc2)cc1 | > 99500 nM |  |  | 231 nM | 151 nM | 130 nM | 338 nM | 142 nM | > 10000 nM | 72.2 nM | 81 nM | 
COc1ccc(S(=O)(=O)N2Cc3cc(-c4ccc(C#N)o4)ccc3N(Cc3cncn3C)C[C@H]2Cc2ccc(OS(=O)(=O)C(F)(F)F)cc2)cc1 |  |  |  | 71 nM | 130 nM | 222 nM |  |  | > 10000 nM |  | 54 nM | 
COc1ccc(S(=O)(=O)N2Cc3cc(-c4ccc(C#N)o4)ccc3N(Cc3cncn3C)C[C@H]2Cc2ccc(OC(=O)NCc3ccccc3)cc2)cc1 | > 99500 nM | > 9700 nM | 260 nM | 35 nM | 101 nM | 115 nM |  |  | > 10000 nM | 41.6 nM | 49 nM | 
COc1ccc(S(=O)(=O)N2Cc3cc(-c4ccnc(OC)c4)ccc3N(Cc3cncn3C)C[C@H]2Cc2ccc(O)cc2)cc1 | > 99500 nM | 18.6 nM | 5.5 nM |  |  |  |  |  |  |  |  | 
COc1ccc(S(=O)(=O)N2Cc3cc(C#N)ccc3N(Cc3cncn3C)C[C@H]2Cc2ccccc2)cc1 | > 99500 nM | 6 nM | 6.4 nM | 63 nM | 101 nM | 43 nM | 99 nM | 70 nM | > 10000 nM | 724 nM | 74 nM | 21 nM
COc1ccc(S(=O)(=O)N2Cc3cc(-c4cccc(C#N)c4)ccc3N(Cc3cncn3C)C[C@H]2Cc2ccc(O)cc2)cc1 | > 99500 nM | 34.4 nM | 22.5 nM |  |  |  |  |  |  |  |  | 
COc1ccc(S(=O)(=O)N2Cc3cc(-c4ccco4)ccc3N(Cc3cncn3C)C[C@H]2Cc2ccc(O)cc2)cc1 | > 99500 nM | 81.7 nM | 55 nM |  |  |  |  |  |  |  |  | 
COc1ccc(S(=O)(=O)N2Cc3cc(-c4ccc(Cl)cc4)ccc3N(Cc3cncn3C)C[C@H]2Cc2ccc(O)cc2)cc1 | > 99500 nM | 194 nM | 706 nM |  |  |  |  |  |  |  |  | 
COc1ccc(S(=O)(=O)N2Cc3cc(N4CCN(C(C)=O)CC4)ccc3N(Cc3cncn3C)C[C@H]2Cc2ccc(O)cc2)cc1 | > 99500 nM | 112 nM | 27 nM |  |  |  |  |  |  |  |  | 
COc1ccc(S(=O)(=O)N2Cc3cc(Nc4ccccc4)ccc3N(Cc3cncn3C)C[C@H]2Cc2ccc(O)cc2)cc1 | > 99500 nM | 454 nM | 246 nM |  |  |  |  |  |  |  |  | 
CCCCCCNC(=O)c1ccc2c(c1)CN(S(=O)(=O)c1ccc(OC)cc1)[C@H](Cc1ccc(O)cc1)CN2Cc1cncn1C | > 99500 nM | 20.7 nM | 70.5 nM |  |  |  |  |  |  |  | 3890 nM | 
COc1ccc(S(=O)(=O)N2Cc3cc(-c4ccnc(OC)c4)ccc3N(Cc3cncn3C)C[C@H]2Cc2ccc(Nc3ccccc3)cc2)cc1 | > 99500 nM | 2430 nM | 5720 nM |  |  |  |  |  |  |  |  | 
COc1ccc(S(=O)(=O)N2Cc3cc(C#N)ccc3N(Cc3cncn3C)C[C@H]2Cc2ccc(-c3cccnc3)cc2)cc1 | 3630 nM | 4.3 nM | 11 nM | 308 nM | 409 nM | 399 nM | 442 nM | 413 nM | > 10000 nM | 353 nM | 466 nM | 
